Test system: 186277-243-T-J2-PDC multi-cell spheroid viability
Test: Anticancer human tumor 186277-243-T-J2-PDC patient-derived colon adenocarcinoma cell line growth inhibition [PI3K]
Details: for IC50: curve of first compound; for viability, T/C: stronger effect = lower value
Excerpt: Combinatorial screen of targeted agents with the PI3K inhibitors inavolisib, alpelisib, duvelisib, and copanlisib in multi-cell type tumor spheroids
A high-throughput screen of multi-cell type tumor spheroids was designed to identify active combinations of targeted small molecules and PI3K pathway inhibitors. Complex spheroids include a stromal component modeled by human endothelial cells (HUVEC) and fibroblasts modeled by human mesenchymal stem cells (MSCs). The concentration ranges selected for each drug and investigational agent were based upon clinically achievable concentrations if the clinical Cmax of the agent was known.
Compounds. The drugs and investigational agents: inavolisib (NSC800729), alpelisib (NSC765974), duvelisib (NSC772469), copanlisib (NSC816437), ipatasertib (NSC767898), afuresertib (NSC778305), talazoparib (NSC767125), sapanisertib (NSC764658), selumetinib (NSC741078), tovorafenib (DAY101, NSC766906), vemurafenib (NSC761431), ravoxertinib (NSC781343), sotorasib (NSC818433), MRTX1133 (NSC 836407), abemaciclib (NSC 768073), palbociclib (NSC758247), venetoclax (NSC 766270), SY5609 (NSC837396), enzalutamide (NSC755605), and darolutamide (NSC825331), were obtained from the National Cancer Institute (NCI) Developmental Therapeutics Program Chemical Repository. The FDA-approved anticancer drug set is available from the NCI Developmental Therapeutics Program. […] The stock solutions were prepared in dimethyl sulfoxide (DMSO, Sigma-Aldrich, St. Louis, MO, cat. D2650) at 800-fold the tested concentration and stored at -70 degrees C prior to their use. All drugs and investigational agents were tested over a range starting from a high concentration at or near the clinical Cmax and decreasing in half-log increments. If the clinical Cmax for an agent had not been determined, the highest concentration tested was 10 microM.
Cell Culture. All cells were maintained in an incubator at 37 degrees C and 5% CO2 with 95% humidity. The PDC lines were cultured according to standard operating procedures established by the NCI PDMR (https://pdmr.cancer.gov/sops/default.htm). All PDCs were thawed and cultured in Matrigel-coated flasks prepared with a working solution of 1X Ham's F-12 nutrient mix, without supplementation (Invitrogen, Waltham, MA, cat. 11765054), 100 U/mL penicillin-streptomycin (Invitrogen, cat. 15140122), and 2.5% Matrigel (Corning Inc., Corning, NY, cat. 354248) for the first three passages. The 354836-022-R-J1-PDC, 475296-252-R-J1-PDC, and 997726-040-R-J2-PDC lines were cultured in 6A media, which includes advanced DMEM/F-12 (Thermo Fisher Scientific, cat. 12634028), 10 mM HEPES (Thermo Fisher Scientific, cat. 15630080), 1X GlutaMAX supplement (Thermo Fisher Scientific, cat. 35050061), 0.1 mg/mL primocin (InvivoGen, San Diego, CA, cat. ant-pm-2), 10% defined fetal bovine serum, heat inactivated (HyClone Laboratories Inc., Logan, UT, cat. SH30070.03HI), 50% L-WRN conditioned media (ATCC, cat. CRL-3276), 1.25 mM N-Acetyl-L-cysteine (Sigma-Aldrich, cat. A9165), 10 mM nicotinamide (Sigma-Aldrich, cat. N0636), 1X B-27 supplement (Thermo Fisher Scientific, cat. 17504044), 1X N-2 supplement (Thermo Fisher Scientific, cat. 17502048), and 10 microM Y-27632 dihydrochloride (Tocris Bioscience, Bristol, United Kingdom, cat. 1254). The 624824-186-R-J2-PDC line was cultured in 6C/Colon 1B media, which includes all 6A media components plus 50 ng/mL human EGF recombinant protein (Thermo Fisher Scientific, cat. PHG0311). […]

[1] = second compound 0.00316 µM, first compound 0.000316 µM
[2] = second compound 0.00316 µM, first compound 0.001 µM
[3] = second compound 0.00316 µM, first compound 0.00316 µM
[4] = second compound 0.00316 µM, first compound 0.01 µM
[5] = second compound 0.00316 µM, first compound 0.0316 µM
[6] = second compound 0.00316 µM, first compound 0.1 µM
[7] = second compound 0.01 µM, first compound 0.000316 µM
[8] = second compound 0.01 µM, first compound 0.001 µM
[9] = second compound 0.01 µM, first compound 0.00316 µM
[10] = second compound 0.01 µM, first compound 0.01 µM
[11] = second compound 0.01 µM, first compound 0.0316 µM
[12] = second compound 0.01 µM, first compound 0.1 µM
[13] = second compound 0.0316 µM, first compound 0.000316 µM
[14] = second compound 0.0316 µM, first compound 0.001 µM
[15] = second compound 0.0316 µM, first compound 0.00316 µM
[16] = second compound 0.0316 µM, first compound 0.01 µM
[17] = second compound 0.0316 µM, first compound 0.0316 µM
[18] = second compound 0.0316 µM, first compound 0.1 µM
[19] = second compound 0.1 µM, first compound 0.000316 µM
[20] = second compound 0.1 µM, first compound 0.001 µM
[21] = second compound 0.1 µM, first compound 0.00316 µM
[22] = second compound 0.1 µM, first compound 0.01 µM
[23] = second compound 0.1 µM, first compound 0.0316 µM
[24] = second compound 0.1 µM, first compound 0.1 µM
[25] = second compound 0.316 µM, first compound 0.000316 µM
[26] = second compound 0.316 µM, first compound 0.001 µM
[27] = second compound 0.316 µM, first compound 0.00316 µM
[28] = second compound 0.316 µM, first compound 0.01 µM
[29] = second compound 0.316 µM, first compound 0.0316 µM
[30] = second compound 0.316 µM, first compound 0.1 µM
[31] = second compound 1 µM, first compound 0.000316 µM
[32] = second compound 1 µM, first compound 0.001 µM
[33] = second compound 1 µM, first compound 0.00316 µM
[34] = second compound 1 µM, first compound 0.01 µM
[35] = second compound 1 µM, first compound 0.0316 µM
[36] = second compound 1 µM, first compound 0.1 µM
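Note: spheroids exposed to compounds for seven days before viability reading.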
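Throughout, for viability, T/C: 100% = DMSO vehicle control viability.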

CC(=O)c1c(C)c2cnc(Nc3ccc(N4CCNCC4)cn3)nc2n(C2CCCC2)c1=O + CC(Nc1ccc2c(c1)OCCn1cc(N3C(=O)OCC3C(F)F)nc1-2)C(N)=O
IC50 (second compound 0.00316 µM): > 100 nM
IC50 (second compound 0.01 µM): > 100 nM
IC50 (second compound 0.0316 µM): > 100 nM
IC50 (second compound 0.1 µM): > 100 nM
IC50 (second compound 0.316 µM): 96.4 nM
IC50 (second compound 1 µM): < 0.316 nM
viability, T/C [1]: 114%
viability, T/C [2]: 89.2%
viability, T/C [3]: 82.3%
viability, T/C [4]: 98.5%
viability, T/C [5]: 118%
viability, T/C [6]: 137%
viability, T/C [7]: 94%
viability, T/C [8]: 94.8%
viability, T/C [9]: 89.8%
viability, T/C [10]: 101%
viability, T/C [11]: 119%
viability, T/C [12]: 132%
viability, T/C [13]: 119%
viability, T/C [14]: 116%
viability, T/C [15]: 91.7%
viability, T/C [16]: 96.3%
viability, T/C [17]: 134%
viability, T/C [18]: 122%
viability, T/C [19]: 104%
viability, T/C [20]: 89.3%
viability, T/C [21]: 102%
viability, T/C [22]: 98.6%
viability, T/C [23]: 101%
viability, T/C [24]: 89.4%
viability, T/C [25]: 85.3%
viability, T/C [26]: 73.6%
viability, T/C [27]: 73.2%
viability, T/C [28]: 76.1%
viability, T/C [29]: 63.5%
viability, T/C [30]: 49.3%
viability, T/C [31]: 49.7%
viability, T/C [32]: 43.5%
viability, T/C [33]: 47.5%
viability, T/C [34]: 41.2%
viability, T/C [35]: 35.7%
viability, T/C [36]: 29.6%

CC(C)n1nc(-c2ccc3oc(N)nc3c2)c2c(N)ncnc21 + CC(Nc1ccc2c(c1)OCCn1cc(N3C(=O)OCC3C(F)F)nc1-2)C(N)=O
IC50 (second compound 0.00316 µM): 52.9 nM
IC50 (second compound 0.01 µM): 55.2 nM
IC50 (second compound 0.0316 µM): 47.5 nM
IC50 (second compound 0.1 µM): 30.4 nM
IC50 (second compound 0.316 µM): 8.51 nM
IC50 (second compound 1 µM): < 0.316 nM
viability, T/C [1]: 90%
viability, T/C [2]: 101%
viability, T/C [3]: 104%
viability, T/C [4]: 93.7%
viability, T/C [5]: 75.1%
viability, T/C [6]: 19.1%
viability, T/C [7]: 116%
viability, T/C [8]: 87.5%
viability, T/C [9]: 113%
viability, T/C [10]: 93.1%
viability, T/C [11]: 73.5%
viability, T/C [12]: 25.3%
viability, T/C [13]: 107%
viability, T/C [14]: 116%
viability, T/C [15]: 97.9%
viability, T/C [16]: 89.9%
viability, T/C [17]: 69.7%
viability, T/C [18]: 17.5%
viability, T/C [19]: 95.8%
viability, T/C [20]: 94.2%
viability, T/C [21]: 92.5%
viability, T/C [22]: 82.4%
viability, T/C [23]: 48.8%
viability, T/C [24]: 8.12%
viability, T/C [25]: 81.7%
viability, T/C [26]: 80.3%
viability, T/C [27]: 63.5%
viability, T/C [28]: 49.7%
viability, T/C [29]: 22.6%
viability, T/C [30]: 6.29%
viability, T/C [31]: 46.9%
viability, T/C [32]: 39.3%
viability, T/C [33]: 37.6%
viability, T/C [34]: 24.3%
viability, T/C [35]: 8.53%
viability, T/C [36]: 3.88%

CCCS(=O)(=O)Nc1ccc(F)c(C(=O)c2c[nH]c3ncc(-c4ccc(Cl)cc4)cc23)c1F + CC(Nc1ccc2c(c1)OCCn1cc(N3C(=O)OCC3C(F)F)nc1-2)C(N)=O
IC50 (second compound 0.00316 µM): 4740 nM
IC50 (second compound 0.01 µM): 5430 nM
IC50 (second compound 0.0316 µM): 5340 nM
IC50 (second compound 0.1 µM): 5030 nM
IC50 (second compound 0.316 µM): 4570 nM
IC50 (second compound 1 µM): 4110 nM
viability, T/C [5]: 108%
viability, T/C [6]: 91.5%
viability, T/C (second compound 0.00316 µM, first compound 0.316 µM): 92.4%
viability, T/C (second compound 0.00316 µM, first compound 1 µM): 83.9%
viability, T/C (second compound 0.00316 µM, first compound 3.16 µM): 77.4%
viability, T/C (second compound 0.00316 µM, first compound 10 µM): 6.03%
viability, T/C [11]: 118%
viability, T/C [12]: 90.4%
viability, T/C (second compound 0.01 µM, first compound 0.316 µM): 83.8%
viability, T/C (second compound 0.01 µM, first compound 1 µM): 90.5%
viability, T/C (second compound 0.01 µM, first compound 3.16 µM): 89.9%
viability, T/C (second compound 0.01 µM, first compound 10 µM): 5.05%
viability, T/C [17]: 112%
viability, T/C [18]: 103%
viability, T/C (second compound 0.0316 µM, first compound 0.316 µM): 102%
viability, T/C (second compound 0.0316 µM, first compound 1 µM): 95.6%
viability, T/C (second compound 0.0316 µM, first compound 3.16 µM): 88.7%
viability, T/C (second compound 0.0316 µM, first compound 10 µM): 6.11%
viability, T/C [23]: 101%
viability, T/C [24]: 105%
viability, T/C (second compound 0.1 µM, first compound 0.316 µM): 118%
viability, T/C (second compound 0.1 µM, first compound 1 µM): 113%
viability, T/C (second compound 0.1 µM, first compound 3.16 µM): 81.2%
viability, T/C (second compound 0.1 µM, first compound 10 µM): 4%
viability, T/C [29]: 81%
viability, T/C [30]: 80.3%
viability, T/C (second compound 0.316 µM, first compound 0.316 µM): 87.1%
viability, T/C (second compound 0.316 µM, first compound 1 µM): 105%
viability, T/C (second compound 0.316 µM, first compound 3.16 µM): 71.5%
viability, T/C (second compound 0.316 µM, first compound 10 µM): 4.62%
viability, T/C [35]: 59%
viability, T/C [36]: 60.9%
viability, T/C (second compound 1 µM, first compound 0.316 µM): 70.4%
viability, T/C (second compound 1 µM, first compound 1 µM): 65.1%
viability, T/C (second compound 1 µM, first compound 3.16 µM): 63.2%
viability, T/C (second compound 1 µM, first compound 10 µM): 5.04%

Source: PubChem BioAssay AID1963983 (Molecular Pharmacology Branch, DTP, NCI, 2024)
